# In US20230416329A1, “A PEPTIDE WITH DISULFIDE BONDS AND INHIBITORY ACTIVITY AGAINST SERINE PROTEASES, DERIVED HYBRID PEPTIDES THEREOF, AND USES THEREOF” (INSTITUTE OF MATERIA MEDICA , CHINESE ACADEMY OF MEDICAL …, priority 2020, published 2023):
# Bridge positions count the residues as written; N and C are the ends. Peptide text beside a SMILES is read from it.
# Target: porcine pancreatic elastase (Sus scrofa, UniProt P00772)
# Experiment: Elastase inhibitory activity of peptides (AAApNA hydrolysis; IC50, Ki, residual activity)
# Type: biochemical
# Conditions: elastase 0.5 μM, AAApNA 1 mM
# Procedure: The inhibition constants of various synthetic active peptide inhibitors (molecular scaffolds) against seine proteases were measured. The substrates N-succinyl-Ala-Ala-Pro-Phe-p-nitroaniline (AAPFpNA), Nα—Benzoyl-L-arginine-4-nitroaniline hydrochloride (BApNA) and N-succinyl-[…] (AAApNA) are used in competitive binding reaction to determine the inhibitory activities against α-chymotrypsin, bovine trypsin, and porcine pancreatic elastase, respectively. Experiments for α-chymotrypsin and bovine trypsin inhibition were measured in 20 mM CaCl2, 50 mM Tris-HCl buffer (pH 7.8), and that for porcine elastase inhibition was measured in 50 mM Tris-HCl buffer (pH 8.0). The concentration of the peptide was measured using optical density (OD) at 280 nm. The Michaelis constant (Km) of the enzyme hydrolysis substrate is calculated from the initial rate of substrate hydrolysis at 405 nm. The absorbance value of the substrate was measured at 405 nm after complete hydrolysis. All data were processed using nonlinear regression.
# • (1) Added a total 198 μL of reaction buffer (20 mM CaCl2, 50 mM Tris-HCl (pH 8.0)) into the 96 well plate, followed by preheating at 37° C. for 15 min. Then added 2 μL of different concentrations of substrates (pNA, dissolved in DMSO), and mixed by centrifugation at 500 rpm for 1 min. Finally, the plate was incubated at 37° C. for 30 min, and the absorbance value at 405 nm was measured. In the 200 μL of reaction system, the final concentrations of pNA were 0, 0.025, 0.05, 0.075, 0.1, 0.125, 0.15, 0.175, and 0.2 mM, respectively. Make three repetitions for each concentration and plot the OD405 m value with pNA concentration to obtain the standard curve. • (2) Added a total 190 μL of reaction buffer (20 mM CaCl2, 50 mM Tris-HCl (pH 8.0)) and 8 μL of 4.375 μM elastase into the 96 well plate, followed by preheating at 37° C. for 5 min. Then added 2 μL of different concentrations of substrates (AAApNA, dissolved in DMSO), and mixed by centrifugation at 500 rpm for 1 min. Finally, the plate was incubated at 37° C. for 30 min, and the absorbance value at 405 nm was measured. In the 200 μL of reaction system, the final concentrations of AAApNA were 0, 0.125, 0.166, 0.2, 0.25, 0.33, 0.6, 0.75, and 1.25 mM, respectively. Make three repetitions for each concentration and plot the OD405 nm value with time to obtain the corresponding curve. Divide the slope of the curve by the slope of the standard curve and the enzyme concentration to obtain the initial velocity V0 (mM/(min*mM protein). Plot the initial velocity V0 with the concentration of substrate AAApNA using Prism software, and the Michaelis constant Km value of elastase hydrolyzing AAApNA was obtained.
# • (1) Added a total 190 μL of different concentrations of peptides (ECs) against elastase and reaction buffer (20 mM CaCl2, 50 mM Tris-HCl buffer (pH 8.0)) into the pre-cold 96 well plate, followed by preheating at 37° C. for 5 min and centrifugated at 500 rpm for 1 min and allowed to stand for 4 minutes. Then added 8 μL of 12.5 μM elastase and incubated at 37° C. for 10 min and centrifugated at 500 rpm for 1 min and allowed to stand for 9 minutes. Finally, added 2 μL of 100 mM AAApNA, and mixed by centrifugation at 500 rpm for 1 min. The plate was incubated at 37° C. for 60 min, and the absorbance value at 405 nm was measured. Three repetitions were made, and only reaction buffer and substrate were added in the blank control as the minimum absorption value (Min OD405 nm); Only reaction buffer, enzyme and substrate were added in the negative control as the maximum absorption value (Max OD405 nm). • (2) In the 200 μL of reaction system, the final concentrations of elastase and AAApNA were 0.5 μM and 1 mM, respectively. • (3) Data statistics
# Residual activity of enzyme (%)=(1−(Max OD405 nm−Sample OD405 nm)/(Max OD405 nm−Min OD405 nm))*100 […]
# Sequence of porcine pancreatic elastase (P00772 27-266): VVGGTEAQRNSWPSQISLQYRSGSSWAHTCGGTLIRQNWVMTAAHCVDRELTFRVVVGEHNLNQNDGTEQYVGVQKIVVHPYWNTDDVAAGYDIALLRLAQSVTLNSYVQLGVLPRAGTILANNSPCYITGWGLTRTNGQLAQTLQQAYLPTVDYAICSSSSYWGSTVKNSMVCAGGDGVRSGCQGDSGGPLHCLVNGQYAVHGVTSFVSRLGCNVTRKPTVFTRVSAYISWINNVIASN
row,IC50,Structure (SMILES)
1,> 50 µM,CC[C@H](C)[C@@H]1NC(=O)[C@H](CO)NC(=O)[C@H](C)NC(=O)[C@H]([C@@H](C)O)NC(=O)[C@H](C)NC(=O)[C@H](CC(C)C)NC(=O)CNC(=O)[C@@H](N)CSSC[C@@H](C(=O)N[C@@H](Cc2ccc(O)cc2)C(=O)O)NC(=O)[C@H](CCC(N)=O)NC(=O)[C@@H]2CCCN2C(=O)[C@@H]2CCCN2C1=O [EC3] (H-CGLATASIPPQCY-OH; disulfide 1-12; N-terminus and C-terminus assumed)
2,> 50 µM,CC[C@H](C)[C@@H]1NC(=O)[C@H](CO)NC(=O)[C@H](C)NC(=O)[C@H]([C@@H](C)O)NC(=O)CNC(=O)[C@H](CC(C)C)NC(=O)CNC(=O)[C@@H](N)CSSC[C@@H](C(=O)N[C@@H](Cc2ccc(O)cc2)C(=O)O)NC(=O)[C@H](CCC(N)=O)NC(=O)[C@@H]2CCCN2C(=O)[C@@H]2CCCN2C1=O [EC4] (H-CGLGTASIPPQCY-OH; disulfide 1-12)
3,> 50 µM,CC[C@H](C)[C@@H]1NC(=O)[C@H](CO)NC(=O)[C@H](C)NC(=O)[C@H]([C@@H](C)O)NC(=O)[C@H](C)NC(=O)[C@H](CC(C)C)NC(=O)[C@@H](N)CSSC[C@@H](C(=O)N[C@@H](Cc2ccc(O)cc2)C(=O)O)NC(=O)[C@H](CCC(N)=O)NC(=O)[C@@H]2CCCN2C(=O)[C@@H]2CCCN2C1=O [EC5] (H-CLATASIPPQCY-OH; disulfide 1-11; N-terminus and C-terminus assumed)
